Legend:
293T cells = experiment: Biological function (phenotype, mobile cells) in 293T cells; assay type: cell-based, human; conditions: for mobile cells / mobile elements / processes (photograph): vehicle PEG 300 with LIPOFECTAMINE, 25 μM β-AED, 5 nM E2
Procedure: A non-toxic vehicle for administration of androstene hormones according to embodiments of the present invention was prepared from a first solution and a second solution. The first solution, comprising liposomal formulation, was placed in PEG 300 to a concentration of 5% and heated in a sonicating water bath to about 45° C. The second solution, comprising a selected hormone (one or more of 5Δ-androsten-3β, 17α-diol, 5Δ-androsten-3β, 17β-diol, or 5Δ-androsten-3β,7β,17β-triol), was placed in PEG 300 and heated in a sonicating water bath to about 45° C. The first and second solutions were then combine and stirred until dissolved.
Biological function was tested in 293T cells, which is a human embryonic cell line transformed with Large T antigen […] SV40. This hypotriploid (polyploid) cell line is particularly useful in such transformation studies and has very distinct phenotypes when grown. All androstene hormone treatment applications were at concentrations of 25 μM.

[1] = tested on: MDA-MB-231 breast cancer cell; experiment: Cell death in MDA-MB-231 breast cancer cell cultures; assay type: cell-based; conditions: 25 μM β-AED, 25 μM β-AET, 5 nM E2; PEG 300 with LIPOFECTAMINE vehicle
Procedure: (§1) Hormone dependent, noninvasive, epithelial phenotype (ER/PR positive MCF-7 breast cancer cells) and hormone independent, invasive, mesenchymal phenotype (ER/PR negative MDA-MB-231 breast cancer cell) cell suspensions were acquired and prepared in complete medium (DMEM/F12, 10% FBS, 1% penicillin/streptomycin (Gibco)). Cellular concentration was adjusted to 2×10^5 cells/mL.
(§2) Androstene hormone solutions according to embodiments of the present invention were prepared from a first solution and a second solution. For the first solution, 3.0 mg of β-AED or β-AET was added to warm PEG 300 to prepare 50 mM stock. For the second solution, 10 μL of LIPOFECTAMINE (3:1 DOSPA: DOPE) was introduced to 100 μL of PEG 300, mixed, and incubated in a water bath at 42° C. for 30 min. The first and second solutions were then mixed in a sonicator water bath at 42° C. for 1 hr. The final concentration was 50 mM β-AED (or AET, as used).
(§3) A β-estradiol solution was also prepared by adding 2.7 mg of β-estradiol to 200 μL warmed PEG 300 with LIPOFECTAMINE and then further diluted 1:1000 with PEG-300. The final concentration was 50 μM.
A diluted β-AED (or β-AET) solution was prepared with complete medium at a final concentration of 50 μM (1:1000 dilute of 50 mM). Likewise, a diluted β-E2 solution was prepared with complete medium at a final concentration of 10 nM (1:5000 dilute of 50 μM). […]

[2] = tested on: MCF-7 breast cancer cells; experiment: Cell death and cell growth in MCF-7 breast cancer cell cultures; assay type: cell-based; conditions: 5 nM E2; for cell growth / cell density (microscopic photograph): MCF-7 grown for 5 days, 25 μM androstene hormone, PEG 300 with 5% LIPOFECTAMINE
Procedure: as §1, §2, §3
A diluted β-AED (or β-AET) solution was prepared with complete medium at a final concentration of 50 μM (1:1000 dilute of 50 mM). Likewise, a diluted β-E2 solution was prepared with complete medium at a final concentration of 10 nM (1:5000 dilute of 50 μM).
Using a 24-well plate, mixtures of 0.5 mL of cells per well with 0.5 mL of medium diluted hormone vehicle. Cell cultures were maintained at 90% humidity, 7% CO2, and 37° C.

[3] = vehicle PEG 300 only, androstene hormone 25 μM

| Compound | mobile cells / cell processes (photograph) (293T cells; [3]) | mobile cells / mobile elements / processes (photograph) (293T cells) | MDA-MB-231 Cell Death Amount [1] | MCF7 Cell Death Amount ([2]; 25 μM β-AED, 25 μM β-AET, PEG 300 with LIPOFECTAMINE vehicle) | cell growth / cell density (microscopic photograph) [2] | cell islands (photograph) (293T cells; [3]) |
| --- | --- | --- | --- | --- | --- | --- |
| C[C@]12CC[C@@H]3c4ccc(O)cc4CC[C@H]3[C@@H]1CC[C@@H]2O [E2, 17β-estradiol] | many more cell processes | many large islands with mobile processes, small islands with mobile process, and mobile cells forming interconnections with other elements | Not observed | Not observed | thick and similar to the cell growth of FIGS. 14 and 16 | – |
| C[C@]12CC[C@H]3[C@@H](CC=C4C[C@@H](O)CC[C@@]43C)[C@@H]1CC[C@@H]2O [β-AED, androst-5-ene-3β,17β-diol] | significant reduction in mobile cells | drastic decrease in, or morphological change, in mobile elements | – | – | areas of decreased density | larger |
| C[C@]12CC[C@H]3[C@@H]([C@@H](O)C=C4C[C@@H](O)CC[C@@]43C)[C@@H]1CC[C@@H]2O [β-AET, 5-androstene-3β,7β,17β-triol] | – | – | – | – | thick and similar to the cell growth of FIG. 14 | – |

From patent publication US20190388349A1, “NON-TOXIC VEHICLE TO SOLUBILIZE, DELIVER, AND OBTAIN BIOLOGICAL ACTIVITY OF STEROID HORMONES AT CELL, TISSUE, AND ORGAN TARGETS, IN VITRO AND IN VIVO” (Government of the United States as Represented by the …, priority 2017, published 2019)
